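48-hour exposure; five concentrations; linearly interpolated endpoints. At the TGI there is no net growth.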

What all share (assay): NCI-60 cell line screen, 48 h
Test [1] deals with HT29 colon.
The test system of test [2] is SNB-75 CNS.
For test [3], the system named is M14 melanoma.
The test system of test [4] is 786-0 renal.
Test [5] has as its system SW-620 colon.
In test [6] the test system is SK-MEL-28 melanoma.
Test [7] concerns BT-549 breast.
Test [8] deals with MOLT-4 leukemia.
In test [9] the test system is A549 NSCLC.
Test [10] has as its system SR leukemia.
In test [11] the test system is NCI-H522 lung.
Test [12] concerns A498 renal.
Test [13] relates to U251 CNS.
Test [14] deals with ACHN renal.
Test [15] deals with MDA-N.
Test [16] has as its system NCI-H226 lung.

Take `O=c1c2cc(I)ccc2nc(SCc2nncs2)n1Cc1ccccc1`: the TGI is more than 100 µM in [1]; 74.9 µM in test [2]; more than 100 µM in [3]; more than 100 µM in test [4]; more than 100 µM in [5]; more than 100 µM in test [6]. Further, the TGI was more than 100 µM in [7]; more than 100 µM in test [8]; more than 100 µM in [9]; more than 100 µM in [10]; 61 µM in test [11]; 65.1 µM in [12]. Besides, the TGI in test [13], in test [14], in test [15] and in [16] was more than 100 µM in each case.

As for `O=c1[nH]c(Cc2ccccc2)nc2c1sc1nc3ccccc3n12`, the TGI in [1], in [2], in [3], in test [4], in test [5] and in test [6] was more than 100 µM throughout. The TGI in test [7], in test [8], in test [9], in test [10], in test [11] and in [12] was more than 100 µM each time. Also, the TGI in test [13], in test [14], in test [15] and in test [16] was more than 100 µM each time.

With `CN(C)c1ccc(C=Nc2ccc(-c3nc4ccccc4[nH]3)cc2)cc1`, the TGI in [1], in [2], in [3], in test [4], in test [5] and in test [6] was more than 100 µM throughout. Besides, the TGI in test [7] is 88.8 µM; in test [8] it was more than 100 µM; in test [9], more than 100 µM; in test [10] it was 65.1 µM; in test [11], more than 100 µM; in [12], more than 100 µM. The TGI in test [13], in test [14], in test [15] and in test [16] was more than 100 µM in each case.

Consider `O=C1/C(=C\Oc2ccc(F)cc2)N2CCC1CC2`, for which the TGI in test [1], in [2], in test [3], in test [4], in [6] and in test [7] was more than 100 µM throughout. For the same compound, the TGI is more than 100 µM in [8]; more than 100 µM in test [9]; 63.1 µM in test [10]; more than 100 µM in test [11]; more than 100 µM in test [12]; more than 100 µM in test [13]. Further, the TGI in test [14], in test [15] and in [16] was more than 100 µM in each case.

For the compound `CC(NC(=O)/C(=C/c1ccccc1)NC(=O)c1ccccc1)C(=O)O` (stereo not given), the TGI in test [1], in test [2], in test [3], in [4], in [5] and in [6] was more than 100 µM each time. In addition, the TGI in [7], in test [8], in test [9], in [10], in test [11] and in test [12] was more than 100 µM each time. Moreover, the TGI in [13] was more than 100 µM; in [14], more than 100 µM; in test [15], more than 100 µM; in test [16] it was 99.5 µM.

With `C=CCN(c1cc(OCc2ccccc2)c2[nH]cc(C)c2c1)S(C)(=O)=O`, the TGI in [1] was more than 100 µM; in [2] it was 55.6 µM; in [3], more than 100 µM; in [4] it was more than 100 µM; in [5] it was more than 100 µM; in test [6] it was more than 100 µM. Besides, the TGI was more than 100 µM in test [7]; more than 100 µM in [8]; more than 100 µM in [9]; more than 100 µM in test [10]; more than 100 µM in test [11]; 90.9 µM in test [12]. In addition, the TGI in test [13], in test [14], in [15] and in test [16] was more than 100 µM throughout.

With `O=P12N(CCN1c1ccccc1)CCN2c1ccccc1`, the TGI in test [1], in test [2], in test [3], in test [4], in [5] and in test [6] was more than 100 µM in each case. Besides, the TGI in test [7], in test [8], in test [9], in test [10], in [11] and in [12] was more than 100 µM each time. The TGI in test [13], in [14], in test [15] and in test [16] was more than 100 µM in each case.

Take `N#Cc1cc(C#N)c(N)nc1N`: the TGI in test [1], in [2], in test [3], in test [4], in test [5] and in test [7] was more than 100 µM throughout. Besides, the TGI in test [8], in [9], in test [10], in test [11], in test [12] and in [13] was more than 100 µM each time. Also, the TGI in test [14], in [15] and in [16] was more than 100 µM in each case.

For the compound `O=c1ccn(CC2(CO)CCC2)c(=O)[nH]1`, the TGI in test [1], in test [2], in test [4], in [5], in test [6] and in test [7] was more than 100 µM throughout. Also, the TGI in test [8], in [9], in test [10], in test [11], in [12] and in test [13] was more than 100 µM throughout. The TGI in test [14], in [15] and in test [16] was more than 100 µM each time.

Consider `O=c1[nH]c(=O)n(COCc2ccccc2)c2ccsc12`, for which the TGI in test [1], in test [2], in [3], in test [4], in [5] and in [6] was more than 100 µM each time. Besides, the TGI in test [7], in [8], in [9], in test [10], in [11] and in [12] was more than 100 µM in each case. In addition, the TGI in test [13], in test [14], in [15] and in test [16] was more than 100 µM throughout.

Regarding `Oc1ccc(O)c(CNc2ccc(C(O)C(F)(F)F)cc2)c1` (stereo not given), the TGI is more than 100 µM in test [1]; more than 100 µM in test [2]; 35.5 µM in [3]; 29 µM in test [4]; more than 100 µM in test [5]; 77.3 µM in test [6]. Moreover, the TGI in test [7] was 28.2 µM; in test [8], 29.7 µM; in test [9], more than 100 µM; in [10], 83.6 µM; in test [11] it was 5.67 µM; in test [12] it was more than 100 µM. In addition, the TGI in test [13] was more than 100 µM; in [14] it was 26.6 µM; in [15], 25.9 µM; in test [16], 84.1 µM.

In the case of `O=C1NC(=O)C(F)(n2cc(F)c(=O)[nH]c2=O)C(O)N1` (stereo not given), the TGI in test [1], in test [2], in test [3], in test [4], in test [5] and in test [6] was more than 10 µM each time. Besides, the TGI in test [7], in test [8], in [9], in [10], in [11] and in [12] was more than 10 µM each time. Besides, the TGI in [13], in test [14], in test [15] and in test [16] was more than 10 µM each time.

As for `COC(=O)/C=C1\C(=O)N(C(C)=O)c2ccc(Br)cc21`, the TGI in test [1] was determined as 25 µM; in test [2], 21.8 µM; in [3] it was 23 µM; in test [4] it was 18 µM; in [5], 25.9 µM; in test [6], 28.6 µM. The TGI was 22.8 µM in test [7]; 10 µM in test [8]; 36 µM in test [9]; 13.5 µM in test [10]; 13.3 µM in test [11]; 51.6 µM in test [12]. Besides, the TGI came out at 20 µM in test [13], 23.9 µM in test [14], 24 µM in test [15] and 29.4 µM in test [16].

Turning to `c1ccc2c(Cc3[nH]c4ccccc4c3Cc3c[nH]c4ccccc34)c[nH]c2c1`, the TGI came to 6.07 µM in test [1]; 9.69 µM in [2]; 6.71 µM in test [3]; 4.25 µM in test [4]; 5.59 µM in test [5]; 23.9 µM in test [6]. The TGI in [7] is 19.5 µM; in test [8], 12 µM; in test [9], 21.6 µM; in [10] it was 15.1 µM; in test [11], 3.76 µM; in test [12], 5.73 µM. Besides, the TGI in test [13] is 9.78 µM; in [14] it was more than 36 µM; in [15], 5.47 µM; in test [16], 24.5 µM.

Regarding `CC(C)C1C(=O)N(c2c(F)c(F)c(F)c(F)c2F)C(=S)N1CCS(=O)c1ccccc1` (stereo not given), the TGI in test [1] was 27.8 µM; in test [2], more than 58.7 µM; in test [3], 30.6 µM; in test [4], 32.1 µM; in test [5], 35.5 µM; in test [6] it was 30.8 µM. Also, the TGI in test [7] is 30.9 µM; in test [8] it was 49.7 µM; in test [9], 40.1 µM; in test [10] it was 16.2 µM; in [11] it was 12.6 µM; in test [12], 30.6 µM. Further, the TGI in [13] was determined as 28 µM; in [14] it was 37.1 µM; in test [15], 32.4 µM; in test [16], 38.5 µM.

Turning to `COC(=O)/C(C#N)=C(\Nc1ccccc1)N1CCOCC1`, the TGI in test [1], in test [2], in test [3], in [4], in [5] and in test [6] was more than 100 µM in each case. Besides, the TGI in [7], in test [8], in [9], in [10], in [11] and in test [12] was more than 100 µM in each case. Moreover, the TGI in test [13], in test [14], in [15] and in test [16] was more than 100 µM in each case.

As to `C=CCn1c(-c2ccc([N+](=O)[O-])cc2)cs/c1=N\C(P(=O)(O)O)P(=O)(O)O`, the TGI in [1], in test [2], in [3], in test [4], in test [5] and in test [6] was more than 100 µM in each case. The TGI in [7], in [8], in test [9], in [10], in [11] and in [12] was more than 100 µM in each case. Further, the TGI in test [13], in [14], in test [15] and in test [16] was more than 100 µM each time.

For `Cc1cn([C@@H]2C[C@@H]2CO)c(=O)[nH]c1=O`, the TGI in test [1], in test [2], in [3], in test [4], in test [5] and in test [6] was more than 100 µM in each case. Besides, the TGI in [7], in [8], in [9], in test [10], in test [11] and in test [12] was more than 100 µM each time. Besides, the TGI in test [13], in test [14], in test [15] and in test [16] was more than 100 µM throughout.

The values above are taken from PubChem BioAssay (NCI).
